#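 At the GI50, growth is halved. TGI marks complete inhibition of growth.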
# Tests used:
# Test in all cases: inhibition of tumour cell growth, NCI panel, 384-well format
# T-47D breast = test system: T-47D breast
# UACC-257 melanoma = test system: UACC-257 melanoma
# HCT-116 colon = test system: HCT-116 colon
# KM12 colon = test system: KM12 colon
# OVCAR-3 ovarian = test system: OVCAR-3 ovarian
# SN12C renal = test system: SN12C renal
# ACHN renal = test system: ACHN renal
# TK-10 renal = test system: TK-10 renal
# IGROV1 ovarian = test system: IGROV1 ovarian
# RPMI-8226 leukemia = test system: RPMI-8226 leukemia
# MALME-3M melanoma = test system: MALME-3M melanoma
# SF-295 CNS = test system: SF-295 CNS
# LOX IMVI melanoma = test system: LOX IMVI melanoma
# RXF 393 renal = test system: RXF 393 renal
# HCT-15 colon = test system: HCT-15 colon
# CAKI-1 renal = test system: CAKI-1 renal
# U251 glioblastoma = test system: U251 glioblastoma
# UACC-62 melanoma = test system: UACC-62 melanoma
# PC-3 prostate = test system: PC-3 prostate
# HCC-2998 colon = test system: HCC-2998 colon
# SK-MEL-28 melanoma = test system: SK-MEL-28 melanoma
# NCI-H23 lung = test system: NCI-H23 lung
# NCI-H322M lung = test system: NCI-H322M lung
# NCI-H522 lung = test system: NCI-H522 lung
# OVCAR-8 ovarian = test system: OVCAR-8 ovarian
# SNB-75 CNS = test system: SNB-75 CNS
# HOP-62 NSCLC = test system: HOP-62 NSCLC
# EKVX NSCLC = test system: EKVX NSCLC
# SK-OV-3 ovarian = test system: SK-OV-3 ovarian
# SK-MEL-5 melanoma = test system: SK-MEL-5 melanoma
# SNB-19 CNS = test system: SNB-19 CNS
# SR leukemia = test system: SR leukemia
# MDA-MB-468 breast = test system: MDA-MB-468 breast
# SF-539 CNS = test system: SF-539 CNS
# SW-620 colon = test system: SW-620 colon
# A498 renal = test system: A498 renal
# HOP-92 NSCLC = test system: HOP-92 NSCLC
# HL-60(TB) leukemia = test system: HL-60(TB) leukemia
# MDA-MB-435 melanoma = test system: MDA-MB-435 melanoma
# MCF7 breast = test system: MCF7 breast
# CCRF-CEM leukemia = test system: CCRF-CEM leukemia
# BT-549 breast = test system: BT-549 breast
# 786-0 renal = test system: 786-0 renal
# MOLT-4 leukemia = test system: MOLT-4 leukemia
# SK-MEL-2 melanoma = test system: SK-MEL-2 melanoma
# NCI-H226 lung = test system: NCI-H226 lung
# UO-31 renal = test system: UO-31 renal
# HT29 colon = test system: HT29 colon
# OVCAR-5 ovarian = test system: OVCAR-5 ovarian
# OVCAR-4 ovarian = test system: OVCAR-4 ovarian
# NCI/ADR-RES ovarian = test system: NCI/ADR-RES ovarian
# SF-268 CNS = test system: SF-268 CNS
# HS 578T breast = test system: HS 578T breast
# MDA-MB-231 breast = test system: MDA-MB-231 breast
# M14 melanoma = test system: M14 melanoma
# COLO 205 colon = test system: COLO 205 colon
# DU-145 prostate = test system: DU-145 prostate
# A549 NSCLC = test system: A549 NSCLC
# NCI-H460 NSCLC = test system: NCI-H460 NSCLC
smiles,measurement,setting,value
O=C(Nc1ccc(OC(F)(F)Cl)cc1)c1cnc(N2CC[C@@H](O)C2)c(-c2ccn[nH]2)c1,GI50,T-47D breast,2.97 µM
same,TGI,T-47D breast,10.7 µM
same,GI50,UACC-257 melanoma,9.12 µM
same,TGI,UACC-257 melanoma,22.5 µM
same,GI50,HCT-116 colon,10.9 µM
same,TGI,HCT-116 colon,23.7 µM
same,GI50,KM12 colon,4.57 µM
same,TGI,KM12 colon,15.4 µM
same,GI50,OVCAR-3 ovarian,11.1 µM
same,TGI,OVCAR-3 ovarian,23.3 µM
same,GI50,SN12C renal,13.7 µM
same,TGI,SN12C renal,26.8 µM
same,GI50,ACHN renal,12.1 µM
same,TGI,ACHN renal,29.4 µM
same,GI50,TK-10 renal,10.8 µM
same,TGI,TK-10 renal,26.4 µM
same,GI50,IGROV1 ovarian,10.9 µM
same,TGI,IGROV1 ovarian,23.6 µM
same,GI50,RPMI-8226 leukemia,3.27 µM
same,TGI,RPMI-8226 leukemia,12.2 µM
same,GI50,MALME-3M melanoma,6.97 µM
same,TGI,MALME-3M melanoma,20.5 µM
same,GI50,SF-295 CNS,11.1 µM
same,TGI,SF-295 CNS,23.2 µM
same,GI50,LOX IMVI melanoma,7.26 µM
same,TGI,LOX IMVI melanoma,20.2 µM
same,GI50,RXF 393 renal,3.84 µM
same,TGI,RXF 393 renal,14.1 µM
same,GI50,HCT-15 colon,2.94 µM
same,TGI,HCT-15 colon,10.9 µM
same,GI50,CAKI-1 renal,8.07 µM
same,TGI,CAKI-1 renal,21.1 µM
same,GI50,U251 glioblastoma,7.26 µM
same,TGI,U251 glioblastoma,20 µM
same,GI50,UACC-62 melanoma,11.6 µM
same,TGI,UACC-62 melanoma,23.9 µM
same,GI50,PC-3 prostate,13.6 µM
same,TGI,PC-3 prostate,26.8 µM
same,GI50,HCC-2998 colon,2.85 µM
same,TGI,HCC-2998 colon,8.48 µM
same,GI50,SK-MEL-28 melanoma,15 µM
same,TGI,SK-MEL-28 melanoma,28.5 µM
same,GI50,NCI-H23 lung,12.3 µM
same,TGI,NCI-H23 lung,25.9 µM
same,GI50,NCI-H322M lung,12.3 µM
same,TGI,NCI-H322M lung,25.1 µM
same,GI50,NCI-H522 lung,11.7 µM
same,TGI,NCI-H522 lung,24.3 µM
same,GI50,OVCAR-8 ovarian,6.65 µM
same,TGI,OVCAR-8 ovarian,19.5 µM
same,GI50,SNB-75 CNS,7.86 µM
same,TGI,SNB-75 CNS,20.9 µM
same,GI50,HOP-62 NSCLC,9.4 µM
same,TGI,HOP-62 NSCLC,22.7 µM
same,GI50,EKVX NSCLC,14 µM
same,TGI,EKVX NSCLC,28.8 µM
same,GI50,SK-OV-3 ovarian,16 µM
same,TGI,SK-OV-3 ovarian,30.7 µM
same,GI50,SK-MEL-5 melanoma,4.81 µM
same,TGI,SK-MEL-5 melanoma,17.2 µM
same,GI50,SNB-19 CNS,14.5 µM
same,TGI,SNB-19 CNS,27.9 µM
same,GI50,SR leukemia,1.94 µM
same,TGI,SR leukemia,4.74 µM
same,GI50,MDA-MB-468 breast,3.89 µM
same,TGI,MDA-MB-468 breast,15 µM
same,GI50,SF-539 CNS,10.1 µM
same,TGI,SF-539 CNS,22.5 µM
same,GI50,SW-620 colon,7.75 µM
same,TGI,SW-620 colon,19.7 µM
same,GI50,A498 renal,13.6 µM
same,TGI,A498 renal,26.8 µM
same,GI50,HOP-92 NSCLC,13.7 µM
same,TGI,HOP-92 NSCLC,26.8 µM
same,GI50,HL-60(TB) leukemia,2.77 µM
same,TGI,HL-60(TB) leukemia,6.75 µM
same,GI50,MDA-MB-435 melanoma,12 µM
same,TGI,MDA-MB-435 melanoma,24.8 µM
same,GI50,MCF7 breast,9.56 µM
same,TGI,MCF7 breast,21.9 µM
same,GI50,CCRF-CEM leukemia,3.01 µM
same,TGI,CCRF-CEM leukemia,10.6 µM
same,GI50,BT-549 breast,14.8 µM
same,TGI,BT-549 breast,28.2 µM
same,GI50,786-0 renal,5.38 µM
same,TGI,786-0 renal,17.2 µM
same,GI50,MOLT-4 leukemia,5.82 µM
same,TGI,MOLT-4 leukemia,18.3 µM
same,GI50,SK-MEL-2 melanoma,15.4 µM
same,TGI,SK-MEL-2 melanoma,28.8 µM
same,GI50,NCI-H226 lung,4.76 µM
same,TGI,NCI-H226 lung,17 µM
same,GI50,UO-31 renal,11.6 µM
same,TGI,UO-31 renal,24.2 µM
same,GI50,HT29 colon,2.57 µM
same,TGI,HT29 colon,6.27 µM
same,GI50,OVCAR-5 ovarian,12.1 µM
same,TGI,OVCAR-5 ovarian,25.7 µM
same,GI50,OVCAR-4 ovarian,6.92 µM
same,TGI,OVCAR-4 ovarian,26.9 µM
same,GI50,NCI/ADR-RES ovarian,19.3 µM
same,TGI,NCI/ADR-RES ovarian,41.9 µM
same,GI50,SF-268 CNS,10.6 µM
same,TGI,SF-268 CNS,23.4 µM
same,GI50,HS 578T breast,12.6 µM
same,TGI,HS 578T breast,25.3 µM
same,GI50,MDA-MB-231 breast,10.4 µM
same,TGI,MDA-MB-231 breast,22.5 µM
same,GI50,M14 melanoma,10.5 µM
same,TGI,M14 melanoma,22.9 µM
same,GI50,COLO 205 colon,5.01 µM
same,TGI,COLO 205 colon,16.6 µM
same,GI50,DU-145 prostate,17.7 µM
same,TGI,DU-145 prostate,32.8 µM
same,GI50,A549 NSCLC,13.3 µM
same,TGI,A549 NSCLC,29.7 µM
same,GI50,NCI-H460 NSCLC,3.95 µM
same,TGI,NCI-H460 NSCLC,13.3 µM
